Results: patent publication US9409876B2, “Bradykinin receptor antagonists and pharmaceutical compositions containing them” (DOMPE' FARMACEUTICI S.P.A., priority 2013, dated 2016)
Where two headings read alike, the source gives them in different places.

Tests used:
[1] = Pharmacokinetics after oral gavage; format: in vivo, rat; settings: for AUC(0-inf): read-out: AUCINF_obs (converted); for half-life: read-out: T½
Experimental: (§1) In three of the rats tested in Example 56, indicated as R1, […], also the pharmacokinetic profile of compound 8 (R,R) was evaluated. The results are summarised in Tables III to IV and in FIGS. 1-4.
FIGS. 1 and 2 show the plasma concentrations, expressed in ng/ml, of compound 8 (R,R) over time after oral administration for each of the three subjects tested (FIG. 1) and as an average (FIG. 2).
(§2) In tables III and V, T1/2 means the half-time of the compound, Tmax means the time at which the concentration of the compound reaches the maximum level, Cmax means the maximal concentration, Tlast means the latest time-point at which the concentration of the compound can be measured, Clast means the concentration at the latest time-point at which the concentration of the compound can be measured, AUClast means the area under the curve at the latest time-point at which the concentration of the compound can be measured, AUCinf_obs means the area under the curve which is infinitely extrapolated and MRTlast means the mean residence time at the latest time-point at which the concentration of the compound can be measured.
(§3) In tables IV and VI, LLOQ means lower limit of quantification.

[2] = Pharmacokinetics after IV administration, brain penetration assessment; format: in vivo, rat; settings: for concentration at 60 min / concentration at 240 min / concentration at 15 min: iv, 7.5 mg/kg
Experimental: as §1, §2, §3
Brain penetration was performed by IV administration at 7.5 mg/kg.

[3] = Sprague-Dawley (SD), rat, plasma, po, 10 mg/kg, oral administration, Average, read-out: plasma level
[4] = Sprague-Dawley (SD), rat, plasma, po, 10 mg/kg, oral administration, Rat2, read-out: plasma level
[5] = Sprague-Dawley (SD), rat, plasma, po, 10 mg/kg, oral administration, Rat3, read-out: plasma level
[6] = Sprague-Dawley, rat, plasma, po, 10 mg/kg, 10 mg/kg oral gavage, Average
[7] = Sprague-Dawley, rat, plasma, po, 10 mg/kg, 10 mg/kg oral gavage, Rat 1
[8] = Sprague-Dawley, rat, plasma, po, 10 mg/kg, 10 mg/kg oral gavage, Rat 2
[9] = Sprague-Dawley, rat, plasma, po, 10 mg/kg, 10 mg/kg oral gavage, Rat 3
[10] = Sprague-Dawley, rat, plasma, po, 10 mg/kg, oral administration, Average, read-out: plasma level
[11] = Sprague-Dawley, rat, plasma, po, 10 mg/kg, oral administration, Rat1, read-out: plasma level
[12] = Sprague-Dawley, rat, plasma, po, 10 mg/kg, oral administration, Rat2, read-out: plasma level
[13] = Sprague-Dawley, rat, plasma, po, 10 mg/kg, oral administration, Rat3, read-out: plasma level
[14] = IV 7.5 mg/kg, Time 480, Average
[15] = Sprague-Dawley (SD), rat, IV 7.5 mg/kg, Brain
[16] = Sprague-Dawley (SD), rat, IV 7.5 mg/kg, Plasma
[17] = Sprague-Dawley, rat, IV 7.5 mg/kg, Brain

In the case of COc1ccccc1CN(C(=O)CC(C)C)[C@@H](C(=O)NC[C@H]1CCCO1)c1ccc(C)cc1 [Compound 8 (R,R), 3-methyl-N-(2-methoxybenzyl)-N-{[(1R)-1-(4-methylphenyl)]-2-oxo-2-[(2R)-(tetrahydrofuran-2-ylmethyl)amino]ethyl}butanamide], the Clast ([1]; 10 mg/kg oral gavage, Average) is reported as 1.1 ng/mL, the Tlast ([1]; 10 mg/kg oral gavage, Average) is reported as 200.0 min and the Tlast ([1]; 10 mg/kg oral gavage, Rat 1) is reported as 240 min. It also gave a Tlast ([1]; 10 mg/kg oral gavage, Rat 2) of 240 min, a Tlast ([1]; 10 mg/kg oral gavage, Rat 3) of 120 min and a bioavailability ([1]; SD (Sprague-Dawley), rat, plasma, 10 mg/kg, oral vs intravenous exposure) of 0.16%. The Cmax ([1]; SD (Sprague-Dawley), rat, plasma, po, 10 mg/kg, oral administration) was ~3 ng/mL, the concentration at 15 min [1, 3] was 2.6 ng/mL and the concentration at 15 min [1, 4] was 3 ng/mL. It also gave a concentration at 15 min [1, 5] of 2.3 ng/mL, a concentration at 30 min [1, 3] of 2 ng/mL and a concentration at 30 min ([1]; Sprague-Dawley (SD), rat, plasma, po, 10 mg/kg, oral administration, Rat1, read-out: plasma level) of 1.8 ng/mL. The concentration at 30 min [1, 4] was 2.4 ng/mL, the concentration at 30 min [1, 5] was 1.7 ng/mL and the concentration at 240 min ([1]; Sprague-Dawley, rat, plasma, oral, 10 mg/kg, 10 mg/kg oral gavage, Rat 1, read-out: Clast) was 1.1 ng/mL. It also gave a concentration at 240 min ([1]; Sprague-Dawley, rat, plasma, oral, 10 mg/kg, 10 mg/kg oral gavage, Rat 2, read-out: Clast) of 1.1 ng/mL, a concentration at 120 min ([1]; Sprague-Dawley, rat, plasma, oral, 10 mg/kg, 10 mg/kg oral gavage, Rat 3, read-out: Clast) of 1 ng/mL and an AUC(0-t) [1, 6] of 5.63 ng·h/mL. The Cmax [1, 6] was 3.4 ng/mL, the MRT last [1, 6] was 84.3 min and the Tmax [1, 6] was 8.3 min. For the same molecule, the AUC(0-inf) [1, 6] was 10.8 ng·h/mL, the half-life [1, 6] was 202 min and the AUC(0-t) [1, 7] was 5.67 ng·h/mL. The Cmax [1, 7] was 4 ng/mL, the MRT last [1, 7] was 101 min and the Tmax [1, 7] was 5 min. It also gave an AUC(0-inf) [1, 7] of 14.4 ng·h/mL, a half-life [1, 7] of 345 min and an AUC(0-t) [1, 8] of 8.62 ng·h/mL. The Cmax [1, 8] was 3 ng/mL, the MRT last [1, 8] was 104 min and the Tmax [1, 8] was 15 min. It also gave an AUC(0-inf) [1, 8] of 13.7 ng·h/mL, a half-life [1, 8] of 191 min and an AUC(0-t) [1, 9] of 2.59 ng·h/mL. The Cmax [1, 9] was 3.3 ng/mL, the MRT last [1, 9] was 47.7 min and the Tmax [1, 9] was 5 min. The AUC(0-inf) [1, 9] was 4.28 ng·h/mL, the half-life [1, 9] was 70.2 min and the concentration at 5 min [1, 10] was 3.1 ng/mL. It also gave a concentration at 5 min [1, 11] of 4 ng/mL, a concentration at 5 min [1, 12] of 2.2 ng/mL and a concentration at 5 min [1, 13] of 3.3 ng/mL. The concentration at 15 min [1, 11] was 2.7 ng/mL, the concentration at 60 min [1, 10] was 1.4 ng/mL and the concentration at 60 min [1, 11] was 1.3 ng/mL. For the same molecule, the concentration at 60 min [1, 12] was 2.1 ng/mL, the concentration at 60 min [1, 13] was 0.8 ng/mL and the concentration at 120 min ([1]; Sprague-Dawley, rat, plasma, po, 10 mg/kg, oral administration, 120 min, Average, read-out: plasma level) was 1.7 ng/mL. It also gave a concentration at 120 min ([1]; Sprague-Dawley, rat, plasma, po, 10 mg/kg, oral administration, 120 min, Rat1, read-out: plasma level) of 1.3 ng/mL, a concentration at 120 min ([1]; Sprague-Dawley, rat, plasma, po, 10 mg/kg, oral administration, 120 min, Rat2, read-out: plasma level) of 2.8 ng/mL and a concentration at 120 min ([1]; Sprague-Dawley, rat, plasma, po, 10 mg/kg, oral administration, 120 min, Rat3, read-out: plasma level) of 1 ng/mL. It also gave a concentration at 240 min ([1]; Sprague-Dawley, rat, plasma, po, 10 mg/kg, oral administration, 240 min, Average, read-out: plasma level) of 1.1 ng/mL, a concentration at 240 min ([1]; Sprague-Dawley, rat, plasma, po, 10 mg/kg, oral administration, 240 min, Rat1, read-out: plasma level) of 1.1 ng/mL and a concentration at 240 min ([1]; Sprague-Dawley, rat, plasma, po, 10 mg/kg, oral administration, 240 min, Rat2, read-out: plasma level) of 1.1 ng/mL. The “absorption after oral administration” value ([1]; compared to the intravenous exposure) was “very poor absorption”, the plasma level ([1]; oral administration, 240 min, Rat3) was “<LLOQ” and the plasma level ([1]; oral administration, 480 min, Average) was “<LLOQ”. For the same molecule, the plasma level ([1]; oral administration, 480 min, Rat1) was “<LLOQ”, the plasma level ([1]; oral administration, 480 min, Rat2) was “<LLOQ” and the plasma level ([1]; oral administration, 480 min, Rat3) was “<LLOQ”. For the same molecule, the Tlast ([2]; IV 7.5 mg/kg, Brain) was 60 min, the Tlast ([2]; IV 7.5 mg/kg, Plasma) was 240 min and the Brain level ([2]; IV 7.5 mg/kg, Time 15, Average) was 635.1 ng/g. The Brain level ([2]; IV 7.5 mg/kg, Time 15, R1) was 619.3 ng/g, the Brain level ([2]; IV 7.5 mg/kg, Time 15, R2) was 446.05 ng/g and the Brain level ([2]; IV 7.5 mg/kg, Time 15, R3) was 839.85 ng/g. For the same molecule, the Brain level ([2]; IV 7.5 mg/kg, Time 240, Average) was “<LLOQ”, the Brain level ([2]; IV 7.5 mg/kg, Time 240, R1) was “<LLOQ” and the Brain level ([2]; IV 7.5 mg/kg, Time 240, R2) was “<LLOQ”. For the same molecule, the Brain level ([2]; IV 7.5 mg/kg, Time 240, R3) was “<LLOQ”, the Brain level [2, 14] was “<LLOQ” and the plasma level [2, 14] was “<LLOQ”. The Brain level ([2]; IV 7.5 mg/kg, Time 480, R1) was “<LLOQ”, the plasma level ([2]; IV 7.5 mg/kg, Time 480, R1) was “<LLOQ” and the Brain level ([2]; IV 7.5 mg/kg, Time 480, R2) was “<LLOQ”. The plasma level ([2]; IV 7.5 mg/kg, Time 480, R2) was “<LLOQ”, the Brain level ([2]; IV 7.5 mg/kg, Time 480, R3) was “<LLOQ” and the plasma level ([2]; IV 7.5 mg/kg, Time 480, R3) was “<LLOQ”. It also gave a concentration at 60 min ([2]; Sprague-Dawley (SD), rat, brain, Brain, read-out: Clast) of 48.8 ng/mL, a concentration at 240 min ([2]; Sprague-Dawley (SD), rat, plasma, Plasma, read-out: Clast) of 4.2 ng/mL and an AUC(0-t) [2, 15] of 523 ng·h/mL. It also gave an MRT last [2, 15] of 11.2 min, an AUC(0-t) [2, 16] of 1200 ng·h/mL and an MRT last [2, 16] of 15.9 min. It also gave a Tmax [2, 16] of 15 min, a half-life ([2]; Sprague-Dawley (SD), rat, IV 7.5 mg/kg, Plasma, read-out: T½) of 12.5 min and a concentration at 60 min ([2]; Sprague-Dawley, rat, brain, Time 60, Average, read-out: Brain level) of 48.8 ng/g. It also gave a concentration at 60 min ([2]; Sprague-Dawley, rat, brain, Time 60, R1, read-out: Brain level) of 62.1 ng/g, a concentration at 60 min ([2]; Sprague-Dawley, rat, brain, Time 60, R2, read-out: Brain level) of 34.6 ng/g and a concentration at 60 min ([2]; Sprague-Dawley, rat, brain, Time 60, R3, read-out: Brain level) of 49.5 ng/g. The Kp ([2]; Sprague-Dawley, rat, brain, IV 7.5 mg/kg, average on the AUC ratio) was ~0.43, the concentration at 15 min ([2]; Sprague-Dawley, rat, plasma, Time 15, Average, read-out: Plasma level) was 1400 ng/mL and the concentration at 15 min ([2]; Sprague-Dawley, rat, plasma, Time 15, R1, read-out: Plasma level) was 1600 ng/mL. For the same molecule, the concentration at 15 min ([2]; Sprague-Dawley, rat, plasma, Time 15, R2, read-out: Plasma level) was 1140 ng/mL, the concentration at 15 min ([2]; Sprague-Dawley, rat, plasma, Time 15, R3, read-out: Plasma level) was 1470 ng/mL and the concentration at 60 min ([2]; Sprague-Dawley, rat, plasma, Time 60, Average, read-out: Plasma level) was 162 ng/mL. For the same molecule, the concentration at 60 min ([2]; Sprague-Dawley, rat, plasma, Time 60, R1, read-out: Plasma level) was 123 ng/mL, the concentration at 60 min ([2]; Sprague-Dawley, rat, plasma, Time 60, R2, read-out: Plasma level) was 157 ng/mL and the concentration at 60 min ([2]; Sprague-Dawley, rat, plasma, Time 60, R3, read-out: Plasma level) was 205 ng/mL. The concentration at 240 min ([2]; Sprague-Dawley, rat, plasma, Time 240, Average, read-out: Plasma level) was 4.2 ng/mL, the concentration at 240 min ([2]; Sprague-Dawley, rat, plasma, Time 240, R1, read-out: Plasma level) was 4.05 ng/mL and the concentration at 240 min ([2]; Sprague-Dawley, rat, plasma, Time 240, R2, read-out: Plasma level) was 3.35 ng/mL. For the same molecule, the concentration at 240 min ([2]; Sprague-Dawley, rat, plasma, Time 240, R3, read-out: Plasma level) was 5.2 ng/mL, the Cmax [2, 17] was 635 ng/g and the Tmax [2, 17] was 15 min. The Cmax ([2]; Sprague-Dawley, rat, IV 7.5 mg/kg, Plasma) was 1400 ng/mL.
